18 compounds from US12612360B2 (Sanofi, priority 2020, dated 2026) can be followed below.

The target in this experiment is T1, ERα (Homo sapiens, UniProt P03372).
T1 construct: host or cells: MCF7
T1 sequence (P03372 1-595): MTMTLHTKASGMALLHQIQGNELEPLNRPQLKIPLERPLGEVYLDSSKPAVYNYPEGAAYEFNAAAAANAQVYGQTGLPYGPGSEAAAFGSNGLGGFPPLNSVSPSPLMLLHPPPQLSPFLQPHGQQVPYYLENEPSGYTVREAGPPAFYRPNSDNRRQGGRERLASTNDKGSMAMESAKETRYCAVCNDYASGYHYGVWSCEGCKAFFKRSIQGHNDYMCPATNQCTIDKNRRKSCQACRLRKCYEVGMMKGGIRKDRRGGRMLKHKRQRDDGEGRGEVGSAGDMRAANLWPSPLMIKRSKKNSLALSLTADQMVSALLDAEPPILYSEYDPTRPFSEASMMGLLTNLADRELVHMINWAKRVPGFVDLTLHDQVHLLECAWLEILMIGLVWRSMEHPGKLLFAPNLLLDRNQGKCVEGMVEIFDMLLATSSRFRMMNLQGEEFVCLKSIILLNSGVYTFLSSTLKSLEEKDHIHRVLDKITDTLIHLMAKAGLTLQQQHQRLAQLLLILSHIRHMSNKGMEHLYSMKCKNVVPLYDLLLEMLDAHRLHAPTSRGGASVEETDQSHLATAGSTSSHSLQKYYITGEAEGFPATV
Briefly: Estrogen receptor degradation activity: breast cancer cell ERα in cell western assay (MCF7 cells). It counts as cell-based. The conditions noted are these: for % Degradation At 0.3 μM: 4 hours, relative to fulvestrant 0.1 μM positive control; for DC50: 4 hours post compound addition, concentration which degrades 50% of the estrogen receptor, read-out: Degradation IC50. As to the method:
Test: Estrogen Receptor Degradation Activity Said test involves measuring the in vitro degradation activity of the compounds of the Table 1a. The measurements of the degradation activities were made using a breast cancer cell ERα in cell western assay as described hereunder. MCF7 cells (ATCC) were seeded in 384 wells microplate (collagen coated) at a concentration of 10000 cells/30 μL per well in red phenol free MEM alpha medium (invitrogen) containing 5% charcoal dextran striped FBS. The following day, 9 points serial 1:5 dilution of each compound was added to the cells in 2.5 μL at final concentrations ranging from […] (in table 2), or 0.1 μM for fulvestrant (using as positive control). At 4 hours post compound addition the cells were fixed by adding 25 μL of formalin (final concentration 5% formalin containing 0.1% triton) for 10 minutes at room temperature and then washed twice with PBS. Then, 50 μL of LI-COR blocking buffer containing 0.1% Triton was added to plate for 30 minutes at room temperature. LI-COR blocking buffer was removed and cells were incubated overnight at cold room with 50 μL anti-ER rabbit monoclonal antibody (Thermo scientific MA1-39540) diluted at 1:1000 in LI-COR blocking buffer containing 0.1% tween-20. Wells which were treated with blocking buffer but no antibody were used as background control. Wells were washed twice with PBS (0.1% tween-20) and incubated at 37° C. for 60 minutes in LI-COR (0.1% tween-20) containing goat anti-rabbit antibody Alexa 488 (1:1000) and Syto-64 a DNA dye (2 μM final concentration). Cells were then washed 3 times in PBS and scanned in ACUMEN explorer (TTP-Labtech). Integrated intensities in the green fluorescence and red fluorescence were measured to determine the levels of ERα and DNA respectively. The degradation activity with respect to estrogen receptors in this test is given by the concentration which degrades 50% of the estrogen receptor (or IC50) in nM. […] DMSO−fulvestrant)).

Regarding `O=C(O)c1ccc2c(c1)CCCC(c1ccc(C(F)(F)F)cc1F)=C2c1ccc(C=C2CN(CCCF)C2)cc1` [Example 49, 8-(2-fluoro-4-(trifluoromethyl)phenyl)-9-(4-((1-(3-fluoropropyl)azetidin-3-ylidene)methyl)phenyl)-6,7-dihydro-5H-benzo[7]annulene-3-carboxylic acid], the “% Degradation At 0.3 μM” value is recorded as 98% and the DC50 was determined as 0.3 nM.

As to `O=C(O)c1ccc2c(c1)CCCC(c1cccc3c1CCC3)=C2c1ccc(C=C2CN(CCCF)C2)cc1` [Example 10, 8-(2,3-dihydro-1H-inden-4-yl)-9-(4-((1-(3-fluoropropyl)azetidin-3-ylidene)methyl)phenyl)-6,7-dihydro-5H-benzo[7]annulene-3-carboxylic acid], the “% Degradation At 0.3 μM” value amounted to 90% and the DC50 came out at 0.2 nM.

As to `Cc1c(C2=C(c3ccc(C=C4CN(CCC(F)(F)F)C4)cc3)c3ccc(C(=O)O)cc3CCC2)ccc(Cl)c1F` [Example 111, 8-(4-chloro-3-fluoro-2-methylphenyl)-9-(4-((1-(3,3,3-trifluoropropyl)azetidin-3-ylidene)methyl)phenyl)-6,7-dihydro-5H-benzo[7]annulene-3-carboxylic acid], the “% Degradation At 0.3 μM” value is recorded as 90% and the DC50 was found to be 1 nM.

For the compound `Cc1c(C2=C(c3ccc(C=C4CN(CCCF)C4)cc3)c3ccc(C(=O)O)cc3CCC2)ccc(Cl)c1F` [Example 81, 8-(4-chloro-3-fluoro-2-methylphenyl)-9-(4-((1-(3-fluoropropyl)azetidin-3-ylidene)methyl)phenyl)-6,7-dihydro-5H-benzo[7]annulene-3-carboxylic acid], the “% Degradation At 0.3 μM” value amounted to 98% and the DC50 was 0.4 nM.

With `O=C(O)c1ccc2c(c1)CCCC(c1ccc(F)c(C(F)(F)F)c1F)=C2c1ccc(C=C2CN(CCCF)C2)cc1` [Example 124, 8-(2,4-difluoro-3-(trifluoromethyl)phenyl)-9-(4-((1-(3-fluoropropyl)azetidin-3-ylidene)methyl)phenyl)-6,7-dihydro-5H-benzo[7]annulene-3-carboxylic acid], the “% Degradation At 0.3 μM” value turned out to be 93% and the DC50 came out at 1.2 nM.

With `Cc1ccc(C2=C(c3ccc(C=C4CN(CCCF)C4)cc3)c3ccc(C(=O)O)cc3CCC2)c(C(F)(F)F)c1` [Example 70, 9-(4-((1-(3-fluoropropyl)azetidin-3-ylidene)methyl)phenyl)-8-(4-methyl-2-(trifluoromethyl)phenyl)-6,7-dihydro-5H-benzo[7]annulene-3-carboxylic acid], the “% Degradation At 0.3 μM” value was found to be 101% and the DC50 turned out to be 0.2 nM.

Regarding `Cc1c(C2=C(c3ccc(C=C4CN(CCC(F)F)C4)cc3)c3ccc(C(=O)O)cc3CCC2)ccc(F)c1F` [Example 22, 8-(3,4-difluoro-2-methylphenyl)-9-(4-((1-(3,3-difluoropropyl)azetidin-3-ylidene)methyl)phenyl)-6,7-dihydro-5H-benzo[7]annulene-3-carboxylic acid], the “% Degradation At 0.3 μM” value came to 93% and the DC50 turned out to be 0.5 nM.

With `O=C(O)c1ccc2c(c1)CCCC(c1cc(F)ccc1C(F)(F)F)=C2c1ccc(C=C2CN(CCCF)C2)cc1` [Example 153, 8-(5-fluoro-2-(trifluoromethyl)phenyl)-9-(4-((1-(3-fluoropropyl)azetidin-3-ylidene)methyl)phenyl)-6,7-dihydro-5H-benzo[7]annulene-3-carboxylic acid], the “% Degradation At 0.3 μM” value stood at 92% and the DC50 is 0.5 nM.

For the compound `O=C(O)c1ccc2c(c1)CCCC(c1ncc(F)cc1C(F)(F)F)=C2c1ccc(C=C2CN(CCCF)C2)cc1` [Example 18, 8-(5-fluoro-3-(trifluoromethyl)pyridin-2-yl)-9-(4-((1-(3-fluoropropyl)azetidin-3-ylidene)methyl)phenyl)-6,7-dihydro-5H-benzo[7]annulene-3-carboxylic acid], the “% Degradation At 0.3 μM” value is given as 90% and the DC50 stood at 0.6 nM.

In the case of `COc1ccc(C(F)(F)F)cc1C1=C(c2ccc(C=C3CN(CCCF)C3)cc2)c2ccc(C(=O)O)cc2CCC1` [Example 137], the “% Degradation At 0.3 μM” value worked out at 92% and the DC50 was determined as 3.7 nM.

As to `O=C(O)c1ccc2c(c1)CCCC(c1cccc(C(F)(F)F)c1Cl)=C2c1ccc(C=C2CN(CCCF)C2)cc1` [Example 147, 8-(2-chloro-3-(trifluoromethyl)phenyl)-9-(4-((1-(3-fluoropropyl)azetidin-3-ylidene)methyl)phenyl)-6,7-dihydro-5H-benzo[7]annulene-3-carboxylic acid], the “% Degradation At 0.3 μM” value came out at 90% and the DC50 turned out to be 0.3 nM.

Regarding `O=C(O)c1ccc2c(c1)CCCC(c1c(F)cc(C(F)(F)F)cc1F)=C2c1ccc(C=C2CN(CCCF)C2)cc1` [Example 21, 8-(2,6-difluoro-4-(trifluoromethyl)phenyl)-9-(4-((1-(3-fluoropropyl)azetidin-3-ylidene)methyl)phenyl)-6,7-dihydro-5H-benzo[7]annulene-3-carboxylic acid], the “% Degradation At 0.3 μM” value amounted to 93% and the DC50 worked out at 0.3 nM.

As to `Cc1ccc(C2=C(c3ccc(C=C4CN(CCCF)C4)cc3)c3ccc(C(=O)O)cc3CCC2)c(C)c1` [Example 77, 8-(2,4-dimethylphenyl)-9-(4-((1-(3-fluoropropyl)azetidin-3-ylidene)methyl)phenyl)-6,7-dihydro-5H-benzo[7]annulene-3-carboxylic acid], the “% Degradation At 0.3 μM” value turned out to be 92% and the DC50 was found to be 0.4 nM.

For `Cc1cc(F)ccc1C1=C(c2ccc(C=C3CN(CCCF)C3)cc2F)c2ccc(C(=O)O)cc2CCC1` [Example 11, 8-(4-fluoro-2-methylphenyl)-9-(2-fluoro-4-((1-(3-fluoropropyl)azetidin-3-ylidene)methyl)phenyl)-6,7-dihydro-5H-benzo[7]annulene-3-carboxylic acid], the “% Degradation At 0.3 μM” value came out at 91% and the DC50 was found to be 0.3 nM.

In the case of `Cc1cc(F)ccc1C1=C(c2ccc(C=C3CN(CCCF)C3)c(C#N)c2)c2ccc(C(=O)O)cc2CCC1` [Example 46, 9-(3-cyano-4-((1-(3-fluoropropyl)azetidin-3-ylidene)methyl)phenyl)-8-(4-fluoro-2-methylphenyl)-6,7-dihydro-5H-benzo[7]annulene-3-carboxylic acid], the “% Degradation At 0.3 μM” value is given as 94% and the DC50 was 6 nM.

Regarding `Cc1c(C2=C(c3ccc(C=C4CN(CCC(F)F)C4)cc3)c3ccc(C(=O)O)cc3CCC2)ccc(Cl)c1F` [Example 127, 8-(4-chloro-3-fluoro-2-methylphenyl)-9-(4-((1-(3,3-difluoropropyl)azetidin-3-ylidene)methyl)phenyl)-6,7-dihydro-5H-benzo[7]annulene-3-carboxylic acid], the “% Degradation At 0.3 μM” value is reported as 93% and the DC50 is 0.6 nM.

As to `O=C(O)c1ccc2c(c1)CCCC(c1ccc(Cl)cc1Cl)=C2c1ncc(C=C2CN(CCCF)C2)cc1F` [Example 158, 8-(2,4-Dichlorophenyl)-9-(3-fluoro-5-((1-(3-fluoropropyl)azetidin-3-ylidene)methyl)pyridin-2-yl)-6,7-dihydro-5H-benzo[7]annulene-3-carboxylic acid], the “% Degradation At 0.3 μM” value was 94% and the DC50 was 0.4 nM.

On to `Cc1cc(F)ccc1C1=C(c2cc(C)c(C=C3CN(CCCF)C3)c(F)c2)c2ccc(C(=O)O)cc2CCC1` [Example 28, 8-(4-fluoro-2-methylphenyl)-9-(3-fluoro-4-((1-(3-fluoropropyl)azetidin-3-ylidene)methyl)-5-methylphenyl)-6,7-dihydro-5H-benzo[7]annulene-3-carboxylic acid], for which the “% Degradation At 0.3 μM” value is given as 90% and the DC50 was found to be 1 nM.
